This passage reports inhibition results from article PMC10303271, “Synthesis and Receptor Binding Studies of α5 GABAAR Selective Novel Imidazodiazepines Targeted for Psychiatric and Cognitive Disorders” (Molecules, 2023).

Like-named read-outs stand apart in the source and are kept apart here.

The target of one assay is T1, 5-HT3 (Homo sapiens, UniProt P46098).
T1 construct: purchased NIMH Psychoactive Drug Screening Program (PDSP)
T1 sequence (P46098 24-478): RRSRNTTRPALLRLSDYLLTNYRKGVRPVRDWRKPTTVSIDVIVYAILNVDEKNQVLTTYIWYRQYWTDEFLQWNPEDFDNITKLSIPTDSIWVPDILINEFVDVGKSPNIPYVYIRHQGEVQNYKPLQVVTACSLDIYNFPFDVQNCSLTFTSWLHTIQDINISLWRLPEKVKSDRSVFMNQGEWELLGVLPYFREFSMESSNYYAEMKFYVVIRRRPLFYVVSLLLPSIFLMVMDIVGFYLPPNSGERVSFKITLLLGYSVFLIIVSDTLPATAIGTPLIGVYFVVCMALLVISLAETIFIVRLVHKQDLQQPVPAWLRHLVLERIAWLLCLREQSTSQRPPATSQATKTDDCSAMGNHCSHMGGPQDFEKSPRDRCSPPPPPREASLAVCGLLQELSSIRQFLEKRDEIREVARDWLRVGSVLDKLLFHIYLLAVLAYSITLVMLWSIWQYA
The experiment in a line: PDSP primary binding 5-HT3. The conditions noted are these: 1.5 h; primary binding, 10,000 nM; last figure of the line = mean of the 4 before it; read-out: 5-HT3, PDSP raw data, mean. As to the method: (§1) To determine if any off-target receptor-binding effects are present, all the novel ligands were sent to the National Institute of Mental Health (NIMH), Psychoactive Drug Screening Program (PDSP). The ligands were screened over a panel of 47 receptors, ion channels, and transporters to determine any other possible interactions with […]. The hERG-binding was also determined. […] No binding of the test compounds to calcium channels was observed. […] It is necessary to screen the compounds for hERG-binding during the early process of drug discovery. The unintentional binding of many drugs to hERG can cause blockade of hERG K+ channels in the heart, which can cause many side effects including cardiac arrhythmias and sudden death. […] All of the α5 imidazodiazepines were tested for hERG-binding.
(§2) The NIMH PDSP assay protocol book [https://kidbdev.med.unc.edu/databases/PDSP%20Protocols%20II%202013-03-28.pdf accessed on 23 April 2023]. describes the protocols for primary and secondary radio-ligand binding assays. These assays were carried out in a final volume of 125 µL per well in the appropriate binding buffer.
(§3) The binding of a ligand to a receptor, ion channel, or transporter was determined in the […] of 10 µM of the appropriate reference compound. […] Plates were incubated in the dark for 90 min at rt, and the reactions were stopped by vacuum filtration onto 0.3% polyethyleneimine (PEI) soaked 96-well filter mats using a 96-well Filtermateharvester. This was followed by three washes with cold PBS buffer. Radioactivity was then counted on a Microbeta counter. Nonlinear regression was used to analyze the data with N = 6 replicates.

For another assay, the target named is T2, Beta2 (Homo sapiens, UniProt P07550).
T2 construct: purchased NIMH Psychoactive Drug Screening Program (PDSP)
T2 sequence (P07550 whole entry): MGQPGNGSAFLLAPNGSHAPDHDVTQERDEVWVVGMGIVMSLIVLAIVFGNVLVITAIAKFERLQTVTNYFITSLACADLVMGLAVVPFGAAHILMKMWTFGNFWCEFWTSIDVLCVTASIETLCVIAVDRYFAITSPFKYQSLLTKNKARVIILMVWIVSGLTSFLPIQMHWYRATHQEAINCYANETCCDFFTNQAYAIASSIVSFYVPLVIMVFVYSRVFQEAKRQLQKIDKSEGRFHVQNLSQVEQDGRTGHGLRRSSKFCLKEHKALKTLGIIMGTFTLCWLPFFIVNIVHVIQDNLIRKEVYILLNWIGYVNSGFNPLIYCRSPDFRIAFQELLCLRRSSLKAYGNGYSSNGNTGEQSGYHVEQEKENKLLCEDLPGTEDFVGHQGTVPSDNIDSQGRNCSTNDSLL
Put plainly: PDSP primary binding Beta2. The conditions noted are these: 1.5 h; primary binding, 10,000 nM; last figure of the line = mean of the 4 before it; read-out: Beta2, PDSP raw data, mean. The procedure: as §1, §2, §3

In another assay the target is T3, Alpha2Beta2 (Rattus norvegicus, UniProt P12389+P12390).
T3 construct: purchased NIMH Psychoactive Drug Screening Program (PDSP)
T3 sequence (P12389 28-511): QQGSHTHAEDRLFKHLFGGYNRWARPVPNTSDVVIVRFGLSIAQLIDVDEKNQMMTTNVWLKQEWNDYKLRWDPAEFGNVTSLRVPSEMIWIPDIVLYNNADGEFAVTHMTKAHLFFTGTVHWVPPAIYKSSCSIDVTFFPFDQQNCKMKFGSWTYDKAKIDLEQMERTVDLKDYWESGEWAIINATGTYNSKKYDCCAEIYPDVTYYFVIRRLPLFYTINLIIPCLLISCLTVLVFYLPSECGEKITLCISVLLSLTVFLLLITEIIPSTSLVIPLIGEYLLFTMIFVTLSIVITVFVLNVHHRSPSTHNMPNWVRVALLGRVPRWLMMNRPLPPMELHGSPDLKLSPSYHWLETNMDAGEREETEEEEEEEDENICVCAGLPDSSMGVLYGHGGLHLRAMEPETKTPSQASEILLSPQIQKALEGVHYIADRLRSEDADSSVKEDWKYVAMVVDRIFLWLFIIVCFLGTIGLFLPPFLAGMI
T3 sequence (P12390 25-500): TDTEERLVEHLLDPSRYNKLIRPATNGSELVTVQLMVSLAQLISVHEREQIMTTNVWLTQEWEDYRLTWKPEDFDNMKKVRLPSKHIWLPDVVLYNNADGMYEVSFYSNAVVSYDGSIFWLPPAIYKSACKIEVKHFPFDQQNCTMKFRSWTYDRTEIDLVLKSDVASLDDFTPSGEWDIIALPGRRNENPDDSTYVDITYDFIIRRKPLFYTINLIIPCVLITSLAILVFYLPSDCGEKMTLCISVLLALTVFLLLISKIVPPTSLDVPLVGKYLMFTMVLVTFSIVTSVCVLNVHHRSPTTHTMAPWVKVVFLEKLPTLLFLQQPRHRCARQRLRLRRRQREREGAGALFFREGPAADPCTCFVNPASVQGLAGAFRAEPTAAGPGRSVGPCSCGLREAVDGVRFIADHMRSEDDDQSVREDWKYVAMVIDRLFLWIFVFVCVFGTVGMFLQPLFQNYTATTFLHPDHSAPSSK
Put plainly: PDSP primary binding Alpha2Beta2. To be noted: primary binding, 10,000 nM; last figure of the line = mean of the 4 before it; read-out: Alpha2Beta2, PDSP raw data, mean. The procedure: as §1, §2, §3

The target in another assay is T4, M4 D (Homo sapiens, UniProt P08173, A203G/Y113C).
T4 construct: purchased NIMH Psychoactive Drug Screening Program (PDSP)
T4 sequence (P08173 1-479 Y113C/A203G): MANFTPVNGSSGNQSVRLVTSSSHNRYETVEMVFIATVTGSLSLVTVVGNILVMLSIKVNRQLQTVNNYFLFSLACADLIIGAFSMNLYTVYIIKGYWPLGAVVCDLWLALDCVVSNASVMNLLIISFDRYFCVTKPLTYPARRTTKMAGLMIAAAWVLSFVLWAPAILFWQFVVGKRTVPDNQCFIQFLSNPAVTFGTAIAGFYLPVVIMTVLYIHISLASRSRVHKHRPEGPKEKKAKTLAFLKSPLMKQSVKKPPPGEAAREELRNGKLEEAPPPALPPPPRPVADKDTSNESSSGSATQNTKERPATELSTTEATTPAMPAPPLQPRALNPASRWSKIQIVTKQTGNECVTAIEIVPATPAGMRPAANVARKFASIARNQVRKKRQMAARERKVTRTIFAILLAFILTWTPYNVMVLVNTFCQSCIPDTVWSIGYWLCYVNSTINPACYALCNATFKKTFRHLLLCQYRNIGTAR
Put plainly: PDSP primary binding M4 D. To be noted: primary binding, 10,000 nM; last figure of the line = mean of the 4 before it; read-out: M4 D, PDSP raw data, mean. The procedure: as §1, §2, §3

A further assay concerns the target T5, D5 (Homo sapiens, UniProt P21918).
T5 construct: purchased NIMH Psychoactive Drug Screening Program (PDSP)
Put plainly: PDSP primary binding D5. The conditions noted are these: 1.5 h; primary binding, 10,000 nM; last figure of the line = mean of the 4 before it; read-out: D5, PDSP raw data, mean. The procedure: as §1, §2, §3

Another assay concerns the target T6, DOR (Homo sapiens, UniProt P41143).
T6 construct: purchased NIMH Psychoactive Drug Screening Program (PDSP)
The experiment in a line: PDSP radioligand binding at DOR.
From the text: Opioid receptors are a family of inhibitory G-coupled protein receptors where opioids act as the ligand. The kappa opioid receptors (KOR), µ and δ opioid receptors (MOR and DOR), and nociception opioid receptor (NOP) fall under the family of opioids receptors. It has been reported that oxadiazole imidazodiazepines can mediate analgesic and anti-inflammatory properties mediated also by the κ opioid receptor (KOR). The binding at KOR is usually silent. The affinities of the test compounds for KOR, DOR, and MOR were determined using radioligand binding assays at a screening concentration of 10,000 nM in collaboration with the National Institute of Mental Health’s Psychoactive Drug Screening Program (PDSP), as mentioned before. Concentration-dependent experiments were conducted to determine Ki values for the compounds that exceeded more than 50% radioligand displacement in primary binding assays.
as §2, §3

Where [1] appears, read: primary binding, 10,000 nM, last figure of the line = mean of the 4 before it, read-out: DOR, PDSP raw data, mean.
[2] abbreviates: at 10,000 nM, N = 5, [3H]-DADLE 2.69 nM, read-out: Primary Binding %DOR.

T5 sequence (P21918 whole entry): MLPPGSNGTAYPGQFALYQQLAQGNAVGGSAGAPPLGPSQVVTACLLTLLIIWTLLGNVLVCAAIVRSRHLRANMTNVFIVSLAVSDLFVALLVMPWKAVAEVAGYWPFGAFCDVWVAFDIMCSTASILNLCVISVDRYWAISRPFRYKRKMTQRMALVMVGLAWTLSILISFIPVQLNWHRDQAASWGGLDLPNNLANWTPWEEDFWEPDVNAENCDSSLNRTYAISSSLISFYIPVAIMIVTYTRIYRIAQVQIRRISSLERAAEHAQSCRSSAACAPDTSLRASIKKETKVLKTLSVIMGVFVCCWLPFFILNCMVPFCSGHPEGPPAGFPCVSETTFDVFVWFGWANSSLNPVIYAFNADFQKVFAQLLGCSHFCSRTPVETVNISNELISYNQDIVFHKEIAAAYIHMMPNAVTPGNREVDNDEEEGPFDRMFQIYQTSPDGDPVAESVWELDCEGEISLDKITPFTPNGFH
T6 sequence (P41143 whole entry): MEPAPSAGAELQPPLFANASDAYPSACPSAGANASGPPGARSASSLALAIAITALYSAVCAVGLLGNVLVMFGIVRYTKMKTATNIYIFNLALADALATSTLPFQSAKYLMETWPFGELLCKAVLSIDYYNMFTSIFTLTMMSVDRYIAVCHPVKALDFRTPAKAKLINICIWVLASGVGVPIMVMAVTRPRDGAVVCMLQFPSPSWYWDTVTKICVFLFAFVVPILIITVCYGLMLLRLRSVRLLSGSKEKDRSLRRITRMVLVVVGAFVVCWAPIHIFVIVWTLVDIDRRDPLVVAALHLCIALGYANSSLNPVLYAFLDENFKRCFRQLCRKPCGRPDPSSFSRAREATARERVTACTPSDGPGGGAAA

For the molecule `CCc1noc(-c2ncn3c2[C@@H](C)N=C(c2ccccc2F)c2cc(C4CC4)ccc2-3)n1` [Compound 46, (R)-5-(8-Cyclopropyl-6-(2′-fluorophenyl)-4-methyl-4H-benzo[f]imidazo[1,5-a][1,4]diazepin-3-yl)-3-ethyl-1,2,4-oxadiazole], the inhibition at 10 µM at 5-HT3 was 29.8%; on Beta2, -6.06%; on Alpha2Beta2, -2.72%; on M4 D, 33.1%; at D5 it was 51.2%; on DOR (setting [1]) it was 67.3%.
On to `C#Cc1ccc2c(c1)C(c1ccccc1Cl)=N[C@H](C)c1c(C(=O)N(C)CC)ncn1-2` [Compound 29], for which the inhibition at 10 µM at 5-HT3 is -4.07%; on Beta2, -7.07%; at Alpha2Beta2 it was -2.89%; at M4 D, 46.2%; at D5, -17.2%; at DOR (setting [2]), 39.5 ± 3.21%. In addition, the inhibition at 10 µM on DOR (setting [1]) was 39.5%.
For the molecule `C#Cc1ccc2c(c1)C(c1ccccn1)=N[C@@H](C)c1c(C(=O)NC)ncn1-2` [Compound 23, (S)-8-Ethynyl-N,4-dimethyl-6-(pyridin-2′-yl)-4H-benzo[f]imidazo[1,5-a][1,4]diazepine-3-carboxamide], the inhibition at 10 µM on 5-HT3 was -7.15%; on Beta2, -5.89%; on Alpha2Beta2, -3.67%; at M4 D it was 50.5%; at D5 it was -16.1%; on DOR (setting [2]), 14.9 ± 8.84%. On DOR (setting [1]), the inhibition at 10 µM is 14.9%.
For the molecule `C#Cc1ccc2c(c1)C(c1ccccc1Cl)=N[C@H](C)c1c(C(=O)NC)ncn1-2` [Compound 21, (R)-6-(2′-Chlorophenyl)-8-ethynyl-N,4-dimethyl-4H-benzo[f]imidazo[1,5-a][1,4]diazepine-3-carboxamide], the inhibition at 10 µM is 2.85% on 5-HT3; -0.28% on Beta2; 3.88% on Alpha2Beta2; 1.13% at M4 D; 12.2% at D5; 28.3 ± 4.67% at DOR (setting [2]). Further, the inhibition at 10 µM at DOR (setting [1]) came out at 28.3%.
As to `CCc1noc(-c2ncn3c2[C@@H](C)N=C(c2ccccc2F)c2cc(-c4ccccc4)ccc2-3)n1` [Compound 35, (R)-3-Ethyl-5-(6-(2′-fluorophenyl)-4-methyl-8-phenyl-4H-benzo[f]imidazo[1,5-a][1,4]diazepin-3-yl)-1,2,4-oxadiazole], the inhibition at 10 µM is -9.33% on 5-HT3; 0.34% at Beta2; 4.18% at Alpha2Beta2; 15.7% on M4 D; 23.6% at D5; 52.7 ± 4.38% on DOR (setting [2]). In addition, the inhibition at 10 µM on DOR (setting [1]) amounted to 52.7%.
Turning to `C#Cc1ccc2c(c1)C(c1ccccn1)=N[C@@H](C)c1c(C(=O)N(C)C)ncn1-2` [Compound 31, (S)-8-Ethynyl-N,N,4-trimethyl-6-(pyridin-2′-yl)-4H-benzo[f]imidazo[1,5-a][1,4]diazepine-3-carboxamide], the inhibition at 10 µM on 5-HT3 is -3.58%; at Beta2 it was -0.05%; at Alpha2Beta2 it was -2.25%; at M4 D, 56.8%; at D5 it was -11.1%; at DOR (setting [2]) it was 6.18 ± 11.2%. Moreover, on DOR (setting [1]), the inhibition at 10 µM was found to be 6.18%.
`C#Cc1ccc2c(c1)C(c1ccccc1F)=N[C@H](C)c1c(C(=S)N(C)C)ncn1-2` [Compound 33, (R)-8-Ethynyl-6-(2′-fluorophenyl)-N,N,4-trimethyl-4H-benzo[f]imidazo[1,5-a][1,4]diazepine-3-carbothioamide]: the inhibition at 10 µM is -0.89% on 5-HT3; -0.87% on Beta2; -5.95% at Alpha2Beta2; 27.2% on M4 D; 1.22% at D5; 13.2 ± 7.83% at DOR (setting [2]). In addition, the inhibition at 10 µM at DOR (setting [1]) came out at 43%.
For `C[C@H]1N=C(c2ccccc2F)c2cc(Cl)ccc2-n2cnc(-c3nc(C4CC4)no3)c21` [Compound 38, (R)-5-(8-Chloro-6-(2′-fluorophenyl)-4-methyl-4H-benzo[f]imidazo[1,5-a][1,4]diazepin-3-yl)-3-cyclopropyl-1,2,4-oxadiazole], the inhibition at 10 µM was 13.5% at 5-HT3; 1.75% at Beta2; 1.44% on Alpha2Beta2; -18.7% on M4 D; 14.1% on D5; 42.8 ± 8.94% on DOR (setting [2]). Besides, the inhibition at 10 µM at DOR (setting [1]) was 42.7%.
In the case of `C[C@H]1N=C(c2ccccc2F)c2cc(-c3ccccc3)ccc2-n2cnc(C(=O)N(C)C)c21` [Compound 5, (R)-6-(2′-Fluorophenyl)-N,N,4-trimethyl-8-phenyl-4H-benzo[f]imidazo[1,5-a][1,4]diazepine-3-carboxamide], the inhibition at 10 µM is -0.89% at 5-HT3; -0.87% at Beta2; -5.95% at Alpha2Beta2; 27.2% on M4 D; 1.22% on D5; 43 ± 7.83% at DOR (setting [2]). Besides, at DOR (setting [1]), the inhibition at 10 µM amounted to 43%.
For the molecule `CC(C)c1noc(-c2ncn3c2[C@@H](C)N=C(c2ccccc2F)c2cc(Cl)ccc2-3)n1` [Compound 37, (R)-5-(8-Chloro-6-(2′-fluorophenyl)-4-methyl-4H-benzo[f]imidazo[1,5-a][1,4]diazepin-3-yl)-3-isopropyl-1,2,4-oxadiazole], the inhibition at 10 µM at 5-HT3 was 13.5%; on Beta2, 6.55%; at Alpha2Beta2, 3.29%; at M4 D, -19.7%; on D5 it was 17.1%; on DOR (setting [2]) it was 31.9 ± 9.58%. For the same molecule, the inhibition at 10 µM on DOR (setting [1]) came to 31.9%.
